What was measured:
[1] = system: larvae of the mustard beetle (Phaedon cochleariae); assay: Phaedon test (PHAECO spray treatment); assay type: in vivo; conditions: 168 h, 100 g/ha, after 7 days, read-out: activity in %
Description: (§1) Solvents: 78.0 parts by weight of acetone • • 1.5 parts by weight of dimethylformamide
(§2) Emulsifier: 0.5 part by weight of alkylaryl polyglycol ether
(§3) An appropriate preparation of active compound is prepared by mixing 1 part by weight of active compound with the stated amounts of solvent and emulsifier and diluting the concentrate with emulsifier-containing water to the desired concentration.
After 7 days, the activity in % is ascertained. Here, 100% means that all of the beetle larvae have been killed; 0% means that no beetle larvae have been killed.

[2] = system: caterpillars of the armyworm (Spodoptera frugiperda); assay: Spodoptera frugiperda test (SPODFR spray treatment); assay type: in vivo; conditions: 168 h, 100 g/ha, after 7 days, read-out: activity in %
Description: as §1, §2, §3
Leaf discs of maize (Zea mays) are sprayed with a preparation of active compound at the desired concentration and, after drying, are populated with caterpillars of the armyworm (Spodoptera frugiperda).
After 7 days, the activity in % is ascertained. Here, 100% means that all of the caterpillars have been killed; 0% means that no caterpillar has been killed.

[3] = log P determination by HPLC on reversed-phase columns (EEC Directive 79/831 Annex V.A8); assay type: physicochemical; conditions: pH 2.7
Description: Determination by LC-MS in the acidic range takes place at a pH of 2.7 using 0.1% aqueous formic acid and acetonitrile (containing 0.1% formic acid) as eluents, with a linear gradient from 10% acetonitrile to 95% acetonitrile.
Calibration was carried out using unbranched alkan-2-ones (having 3 to 16 carbon atoms) with known log P values (the log P values are determined from the retention times by linear interpolation between two successive alkanones).

CNC(=O)c1cc(Cl)cc(C)c1NC(=O)c1cc(Cn2cc(-c3ccccc3Cl)nn2)nn1-c1ncccc1Cl [Example 19]
pest or weed control at 100 g/ha [1]: 100%
pest or weed control at 100 g/ha [2]: 100%
chromatographic logP [3]: 2.74

CNC(=O)c1cc(Cl)cc(C)c1NC(=O)c1cc(Cn2cc(-c3cccc(Cl)c3)nn2)nn1-c1ncccc1Cl [Example 20]
pest or weed control at 100 g/ha [1]: 100%
pest or weed control at 100 g/ha [2]: 100%
chromatographic logP [3]: 3.11

CNC(=O)c1cc(Cl)cc(C)c1NC(=O)c1cc(Cn2ncc(-c3ccc(F)cc3)n2)nn1-c1ncccc1Cl [Example 24]
pest or weed control at 100 g/ha [1]: 100%
pest or weed control at 100 g/ha [2]: 100%
chromatographic logP [3]: 3.23

CNC(=O)c1cc(Cl)cc(C)c1NC(=O)c1cc(Cn2ncc(-c3ccc(Cl)cc3)n2)nn1-c1ncccc1Cl [Example 25]
pest or weed control at 100 g/ha [1]: 100%
pest or weed control at 100 g/ha [2]: 100%
chromatographic logP [3]: 3.62

CNC(=O)c1cc(Cl)cc(C)c1NC(=O)c1cc(Cn2ncc(-c3ccccc3Cl)n2)nn1-c1ncccc1Cl [Example 27]
pest or weed control at 100 g/ha [1]: 100%
pest or weed control at 100 g/ha [2]: 100%
chromatographic logP [3]: 3.43

CNC(=O)c1cc(Cl)cc(C)c1NC(=O)c1cc(Cn2ncc(-c3cccc(Cl)c3)n2)nn1-c1ncccc1Cl [Example 28]
pest or weed control at 100 g/ha [1]: 100%
pest or weed control at 100 g/ha [2]: 100%
chromatographic logP [3]: 3.63

CNC(=O)c1cc(C#N)cc(C)c1NC(=O)c1cc(Cn2cc(-c3ccc(Cl)cc3)nn2)nn1-c1ncccc1Cl [Example 33]
pest or weed control at 100 g/ha [1]: 100%
pest or weed control at 100 g/ha [2]: 100%
chromatographic logP [3]: 2.75

CNC(=O)c1cc(C#N)cc(C)c1NC(=O)c1cc(Cn2cc(-c3ccc(Cl)cc3Cl)nn2)nn1-c1ncccc1Cl [Example 34]
pest or weed control at 100 g/ha [1]: 100%
pest or weed control at 100 g/ha [2]: 100%
chromatographic logP [3]: 3.2

CNC(=O)c1cc(C#N)cc(C)c1NC(=O)c1cc(Cn2cc(-c3cccc(Cl)c3)nn2)nn1-c1ncccc1Cl [Example 36]
pest or weed control at 100 g/ha [1]: 100%
pest or weed control at 100 g/ha [2]: 100%
chromatographic logP [3]: 2.86

CNC(=O)c1cc(C#N)cc(C)c1NC(=O)c1cc(Cn2ncc(-c3ccc(F)cc3)n2)nn1-c1ncccc1Cl [Example 40]
pest or weed control at 100 g/ha [1]: 100%
pest or weed control at 100 g/ha [2]: 100%
chromatographic logP [3]: 2.96

CNC(=O)c1cc(C#N)cc(C)c1NC(=O)c1cc(Cn2ncc(-c3ccc(Cl)cc3)n2)nn1-c1ncccc1Cl [Example 41]
pest or weed control at 100 g/ha [1]: 100%
pest or weed control at 100 g/ha [2]: 100%
chromatographic logP [3]: 3.34

CNC(=O)c1cc(C#N)cc(C)c1NC(=O)c1cc(Cn2ncc(-c3ccc(Cl)cc3Cl)n2)nn1-c1ncccc1Cl [Example 42]
pest or weed control at 100 g/ha [1]: 100%
pest or weed control at 100 g/ha [2]: 100%
chromatographic logP [3]: 3.81

CNC(=O)c1cc(C#N)cc(C)c1NC(=O)c1cc(Cn2ncc(-c3ccccc3Cl)n2)nn1-c1ncccc1Cl [Example 43]
pest or weed control at 100 g/ha [1]: 100%
pest or weed control at 100 g/ha [2]: 100%
chromatographic logP [3]: 3.21

CNC(=O)c1cc(C#N)cc(C)c1NC(=O)c1cc(Cn2ncc(-c3cccc(Cl)c3)n2)nn1-c1ncccc1Cl [Example 44]
pest or weed control at 100 g/ha [1]: 100%
pest or weed control at 100 g/ha [2]: 100%
chromatographic logP [3]: 3.23

Cc1cc(Cl)cc(C(=O)NC(C)(C)C)c1NC(=O)c1cc(Cn2cc(-c3ccc(F)cc3)nn2)nn1-c1ncccc1Cl [Example 45]
pest or weed control at 100 g/ha [1]: 100%
pest or weed control at 100 g/ha [2]: 100%
chromatographic logP [3]: 3.63

Cc1cc(C#N)cc(C(=O)NC(C)(C)C)c1NC(=O)c1cc(Cn2cc(-c3ccc(Cl)cc3Cl)nn2)nn1-c1ncccc1Cl [Example 55]
pest or weed control at 100 g/ha [1]: 100%
pest or weed control at 100 g/ha [2]: 100%
chromatographic logP [3]: 4.06

Cc1cc(C#N)cc(C(=O)NC(C)(C)C)c1NC(=O)c1cc(Cn2cc(-c3cccc(Cl)c3)nn2)nn1-c1ncccc1Cl [Example 57]
pest or weed control at 100 g/ha [1]: 100%
pest or weed control at 100 g/ha [2]: 83%
chromatographic logP [3]: 3.55

Cc1cc(C#N)cc(C(=O)NC(C)(C)C)c1NC(=O)c1cc(Cn2ncc(-c3ccc(F)cc3)n2)nn1-c1ncccc1Cl [Example 61]
pest or weed control at 100 g/ha [1]: 100%
pest or weed control at 100 g/ha [2]: 100%
chromatographic logP [3]: 3.72

Cc1cc(C#N)cc(C(=O)NC(C)(C)C)c1NC(=O)c1cc(Cn2ncc(-c3ccc(Cl)cc3)n2)nn1-c1ncccc1Cl [Example 62]
pest or weed control at 100 g/ha [1]: 100%
pest or weed control at 100 g/ha [2]: 100%
chromatographic logP [3]: 4.06

Cc1cc(C#N)cc(C(=O)NC(C)(C)C)c1NC(=O)c1cc(Cn2ncc(-c3ccc(Cl)cc3Cl)n2)nn1-c1ncccc1Cl [Example 63]
pest or weed control at 100 g/ha [1]: 100%
pest or weed control at 100 g/ha [2]: 100%
chromatographic logP [3]: 4.67

Cc1cc(C#N)cc(C(=O)NC(C)(C)C)c1NC(=O)c1cc(Cn2ncc(-c3ccccc3Cl)n2)nn1-c1ncccc1Cl [Example 64]
pest or weed control at 100 g/ha [1]: 100%
pest or weed control at 100 g/ha [2]: 100%
chromatographic logP [3]: 4.03

Cc1cc(C#N)cc(C(=O)NC(C)(C)C)c1NC(=O)c1cc(Cn2ncc(-c3cccc(Cl)c3)n2)nn1-c1ncccc1Cl [Example 65]
pest or weed control at 100 g/ha [1]: 100%
pest or weed control at 100 g/ha [2]: 100%
chromatographic logP [3]: 4.14

CNC(=O)c1cc(Cl)cc(C)c1NC(=O)c1cc(Cn2nnc3cc([N+](=O)[O-])ccc32)nn1-c1ncccc1Cl [Example 71]
pest or weed control at 100 g/ha [1]: 100%
pest or weed control at 100 g/ha [2]: 100%
chromatographic logP [3]: 2.64

CNC(=O)c1cc(Cl)cc(C)c1NC(=O)c1cc(Cn2nc3ccc(Cl)cc3n2)nn1-c1ncccc1Cl [Example 72]
pest or weed control at 100 g/ha [1]: 100%
pest or weed control at 100 g/ha [2]: 100%
chromatographic logP [3]: 3.28

CNC(=O)c1cc(Cl)cc(C)c1NC(=O)c1cc(Cn2nc3ccc(C(F)(F)F)cc3n2)nn1-c1ncccc1Cl [Example 74]
pest or weed control at 100 g/ha [1]: 100%
pest or weed control at 100 g/ha [2]: 100%
chromatographic logP [3]: 3.48

CNC(=O)c1cc(Cl)cc(C)c1NC(=O)c1cc(Cn2nc3ccc([N+](=O)[O-])cc3n2)nn1-c1ncccc1Cl [Example 75]
pest or weed control at 100 g/ha [1]: 100%
pest or weed control at 100 g/ha [2]: 100%
chromatographic logP [3]: 2.95

CNC(=O)c1cc(Cl)cc(C)c1NC(=O)c1cc(Cn2nc3cc(Cl)c(Cl)cc3n2)nn1-c1ncccc1Cl [Example 77]
pest or weed control at 100 g/ha [1]: 100%
pest or weed control at 100 g/ha [2]: 100%
chromatographic logP [3]: 3.73

CNC(=O)c1cc(Cl)cc(C)c1NC(=O)c1cc(Cn2nc3ccc(F)cc3n2)nn1-c1ncccc1Cl [Example 79]
pest or weed control at 100 g/ha [1]: 100%
pest or weed control at 100 g/ha [2]: 100%
chromatographic logP [3]: 2.89

CNC(=O)c1cc(C#N)cc(C)c1NC(=O)c1cc(Cn2nc3cc(Cl)c(Cl)cc3n2)nn1-c1ncccc1Cl [Example 81]
pest or weed control at 100 g/ha [1]: 100%
pest or weed control at 100 g/ha [2]: 100%
chromatographic logP [3]: 3.35

CNC(=O)c1cc(Cl)cc(C)c1NC(=O)c1cc(Cn2nnc3cc(Br)ccc32)nn1-c1ncccc1Cl [Example 86]
pest or weed control at 100 g/ha [1]: 100%
pest or weed control at 100 g/ha [2]: 100%
chromatographic logP [3]: 2.94

CNC(=O)c1cc(Cl)cc(C)c1NC(=O)c1cc(Cn2nc3ccc(Br)cc3n2)nn1-c1ncccc1Cl [Example 87]
pest or weed control at 100 g/ha [1]: 100%
pest or weed control at 100 g/ha [2]: 100%
chromatographic logP [3]: 3.39

CNC(=O)c1cc(Cl)cc(C)c1NC(=O)c1cc(Cn2nnc3c(Cl)c(Cl)c(Cl)cc32)nn1-c1ncccc1Cl [Example 88]
pest or weed control at 100 g/ha [1]: 100%
pest or weed control at 100 g/ha [2]: 100%
chromatographic logP [3]: 3.75

CNC(=O)c1cc(Cl)cc(C)c1NC(=O)c1cc(Cn2nnc3c(Cl)cc(C(F)(F)F)cc32)nn1-c1ncccc1Cl [Example 89]
pest or weed control at 100 g/ha [1]: 100%
pest or weed control at 100 g/ha [2]: 100%
chromatographic logP [3]: 3.59

CNC(=O)c1cc(Cl)cc(C)c1NC(=O)c1cc(Cn2nnc3c(Br)cc(OC(F)(F)F)cc32)nn1-c1ncccc1Cl [Example 90]
pest or weed control at 100 g/ha [1]: 100%
pest or weed control at 100 g/ha [2]: 100%
chromatographic logP [3]: 3.74

CNC(=O)c1cc(Cl)cc(C)c1NC(=O)c1cc(Cn2nc3cc(OC(F)(F)F)cc(Br)c3n2)nn1-c1ncccc1Cl [Example 91]
pest or weed control at 100 g/ha [1]: 100%
pest or weed control at 100 g/ha [2]: 100%
chromatographic logP [3]: 4.17

CNC(=O)c1cc(C#N)cc(C)c1NC(=O)c1cc(Cn2nnc3c(Cl)c(Cl)c(Cl)c(Cl)c32)nn1-c1ncccc1Cl [Example 92]
pest or weed control at 100 g/ha [1]: 100%
pest or weed control at 100 g/ha [2]: 100%
chromatographic logP [3]: 3.79

CNC(=O)c1cc(C#N)cc(C)c1NC(=O)c1cc(Cn2nnc3cc(Br)ccc32)nn1-c1ncccc1Cl [Example 94]
pest or weed control at 100 g/ha [1]: 100%
pest or weed control at 100 g/ha [2]: 100%
chromatographic logP [3]: 2.66

CNC(=O)c1cc(C#N)cc(C)c1NC(=O)c1cc(Cn2nc3ccc(Br)cc3n2)nn1-c1ncccc1Cl [Example 95]
pest or weed control at 100 g/ha [1]: 100%
pest or weed control at 100 g/ha [2]: 100%
chromatographic logP [3]: 3.01

CNC(=O)c1cc(C#N)cc(C)c1NC(=O)c1cc(Cn2nnc3c(Cl)c(Cl)c(Cl)cc32)nn1-c1ncccc1Cl [Example 96]
pest or weed control at 100 g/ha [1]: 100%
pest or weed control at 100 g/ha [2]: 100%
chromatographic logP [3]: 3.42

CNC(=O)c1cc(C#N)cc(C)c1NC(=O)c1cc(Cn2nnc3cc(Br)c(C(F)(F)F)cc32)nn1-c1ncccc1Cl [Example 97]
pest or weed control at 100 g/ha [1]: 100%
pest or weed control at 100 g/ha [2]: 100%
chromatographic logP [3]: 3.27

— patent US8536202B2, “Triazole-substituted anthranilamides as pesticides” (Bayer Cropscience AG, priority 2010, dated 2013)
